The conditions of this series: water at 20° C.

For the compound `C=Cc1ccccc1` [styrene], the solubility in water was 0.03 % by weight.

Take `C=C(C)C(=O)OCCCC` [butyl methacrylate]: the solubility in water worked out at 0.03 % by weight.

Regarding `C=C(C)C(=O)OC` [methyl methacrylate], the solubility in water is on record as 1.35 % by weight.

The values are drawn from US20050008851A1, “Biosensor” (FUJI PHOTO FILM CO., LTD., priority 2003, published 2005).
